System: bone marrow-derived macrophages (BMDM)
Experiment: In vitro macrophage polarization assay (RT-qPCR gene expression)
Format: cell-based, mice
Conditions: 0.5 mg/mL recombinant TSG6, 2 days, qPCR vs GAPDH, FIG. 3C
Description: To determine if fibroblast secreted TSG-6 regulates the presence the distinct myeloid subsets between melanoma and pancreatic TME, the inventors performed receptor-ligand studies between the myeloid subsets and fibroblasts. First, the inventors analyzed the relative expression of TSG-6 and its binding partner CD44 in the fibroblasts and macrophage/neutrophil subsets. While TSG-6 was expressed slightly higher in the mT4 tumors as compared to B16F10 tumors, its ligand CD44 was primarily expressed in the macrophage/neutrophil subsets only in the mT4 tumors (FIG. 3A). To determine if this observation correlates with higher interactions between TSG-6 and suppressive myeloid subsets in the mT4 tumors, the inventors performed receptor-ligand interaction studies using CellChat analysis (PMID: 33597522). The analysis indicated strong communication probabilities of fibroblast expressed TSG-6 and myeloid CD44 interaction only in the mT4 tumors and not B16F10 tumors (FIG. 3B). To further evaluate whether TSG-6 regulates the immunosuppressive macrophage phenotype, the inventors performed an in vitro macrophage polarization assay. The inventors stimulated bone marrow-derived macrophages (BMDM) with either LPS or recombinant TSG-6 (rTSG-6) and observed that rTSG-6 increased the expression of Arg1, Mafb, Mrc1, and Vista in the macrophages and suppressed Ifng expression (FIG. 3C). Thus, the above data indicates TSG-6 interacts with suppressive intratumoral myeloid subsets and might have a role to play in resistance to ICT.
TSG-6 stimulated bone marrow derived macrophages (BMDM) and RT-qPCR Gene Expression: BMDM were isolated from the femurs of wild type C57/BL6 mice in ice cold complete RPMI 1640 media. Both epiphyses were removed before the bones were placed in sterile microfuge tubes and centrifuged at 500×g for 5 minutes at 4° C. to extrude the bone marrow. The collected bone marrow was homogenized by pipetting followed by RBC lysis. The single cell suspension of bone marrow cells obtained, was counted in an automated Vicell cell counter before 2.0e6 cells/well were cultured in Iscove's Modified Dulbecco's Medium (IMDM) supplemented with 10% FBS and 10 ng/ml Macrophage colony-stimulating factor (M-CSF) (Biolegend, Cat #576404)) in a 12 well plate. On Day 3, cells were resuspended in fresh growth media and on Day 7, cells were subjected to fresh complete IMDM containing 100 ng/ml LPS (InvivoGen, Cat #tlrl-eblps) and 0.5 mg/mL recombinant TSG6 (R&D Systems, Cat #2326-TS-050) and left in culture for 2 days. Supernatants were removed and adhered macrophages were subjected to Accutase cell detachment solution following manufacturers protocol (Innovative Cell Technologies, 07920). Macrophages were resuspended and centrifuged at 350×g for 8 minutes. Cell pellets were lysed with 350 uL buffer RLT lysis buffer (Qiagen, 74104) supplemented with B-ME and subjected to RNA extraction using RNA mini extraction kit (Qiagen, 74104). cDNA was synthesized using the NEB LunaScript RT SuperMix Kit (E3010L) and 30 ng of total cDNA was used for each 20 uL qPCR reaction. Taqman gene expression Real-Time PCR assays were run using manufacturers protocol and gene targets were compared to GAPDH housekeeping expression (GAPDH, Mm05724508_g1; IFNg, Mm01168134_m1; Mrc1, Mm01329359_m1; Arg1, Mm00475988_m1; Mafb, Mm00627481_s1, VISTA, Mm00472312_m1).

In the case of “rTSG-6: recombinant TSG6 protein, R&D Systems, Cat #2326-TS-050”, the Ifng expression is reported as “suppressed”, the “expression of Arg1” value is reported as “increased” and the “expression of Mafb” value is reported as “increased”. For the same substance, the “expression of Mrc1” value was “increased” and the “expression of Vista” value was “increased”.
